Experimental data: patent publication US11992473B2, “Compositions and methods for diagnosis and treatment of conditions related to the quality of aging and longevity” (Epitracker, Inc., priority 2018, dated 2024)

What was measured:
Assay type in all cases: cell-based, human
[1] = tested on: Venular endothelial cells; experiment: BioMAP Diversity PLUS 4H system (Th2 type vascular inflammation); conditions: 6.7 μM
Description: This study examined activities of small molecules discovered in dolphin serum that had protective profiles against diseases of aging which can impact quality of life and longevity. These molecules were tested across 12 human primary cell-based systems as part of DiscoverX's BioMAP Diversity Plus program. These systems are designed to model complex human tissue and disease biology of the vasculature, skin, lung, and inflammatory tissues. Quantitative measurements of biomarker activities across this broad panel, along with comparative analysis of biological activities of known bioactive agents were used to predict and compare the efficacy and function of the four compounds. […]
(§1) Each test agent generates a signature BioMAP profile that is created from the changes in protein biomarker readouts within individual system environments. Biomarker readouts (7-17 per system) are selected for therapeutic and biological relevance, are predictive for disease outcomes or specific drug effects and are validated using agents with known mechanism of action (MoA). Each readout is measured quantitatively by immune-based methods that detect protein (e.g., ELISA) or functional assays that measure proliferation and viability. BioMAP readouts are diverse and include cell surface receptors, cytokines, chemokines, matrix molecules and enzymes. […]

[2] = tested on: Venular endothelial cells, peripheral blood mononuclear cells; experiment: BioMAP Diversity PLUS SAg system (T cell stimulation, Th1 type chronic inflammation)
Description: (§2) This study examined activities of small molecules discovered in dolphin serum that had protective profiles against diseases of aging which can impact quality of life and longevity. These molecules were tested across 12 human primary cell-based systems as part of DiscoverX's BioMAP Diversity Plus program. These systems are designed to model complex human tissue and disease biology of the vasculature, skin, lung, and inflammatory tissues. Quantitative measurements of biomarker activities across this broad panel, along with comparative analysis of biological activities of known bioactive agents were used to predict and compare the efficacy and function of the four compounds. Compounds were tested at four concentrations (740 nm and 2.2, 6.7 and 20 μM).
(§3) BioMAP panels consist of human primary cell-based systems designed to model different aspects of the human body in an in vitro format. The 12 systems in the Diversity PLUS panel allow test agent characterization in an unbiased way across a broad set of systems modeling various human disease states. BioMAP systems are constructed with one or more primary cell types from healthy human donors, with stimuli (such as cytokines or growth factors) added to capture relevant signaling networks that naturally occur in human tissue or pathological conditions. Vascular biology is modeled in both a Th1 (3C system) and a Th2 (4H system) inflammatory environment, as well as in a Th1 inflammatory state specific to arterial smooth muscle cells (CASM3C system). Additional systems recapitulate aspects of the systemic immune response including monocyte-driven Th1 inflammation (LPS system) or T cell stimulation (SAg system), chronic Th1 inflammation driven by macrophage activation (lMphg system) and the T cell-dependent activation of B cells that occurs in germinal centers (BT system). The BE3C system (Th1) and the BF4T system (Th2) represent airway inflammation of the lung, while the MyoF system models myofibroblast-lung tissue remodeling. Lastly, skin biology is addressed in the KF3CT system modeling Th1 cutaneous inflammation and the HDF3CGF system modeling wound healing.
(§4) Each test agent generates a signature BioMAP profile that is created from the changes in protein biomarker readouts within individual system environments. Biomarker readouts (7-17 per system) are selected for therapeutic and biological relevance, are predictive for disease outcomes or specific drug effects and are validated using agents with known mechanism of action (MoA). Each readout is measured quantitatively by immune-based methods that detect protein (e.g., ELISA) or functional assays that measure proliferation and viability. BioMAP readouts are diverse and include cell surface receptors, cytokines, chemokines, matrix molecules and enzymes. In total, the Diversity PLUS panel contains 148 biomarker readouts that capture biological changes that occur within the physiological context of the particular BioMAP system. Specific BioMAP activities have been correlated to in vivo biology, and multiparameter BioMAP profiles have been used to distinguish compounds based on MoA and target selectivity across diverse physiological systems.
(§5) The Diversity PLUS panel allows test agent characterization in an unbiased way across a broad set of systems modeling various human disease states. These systems are designed to model complex human tissue and disease biology of the vasculature, skin, lung, and inflammatory tissues. Quantitative measurements of 148 biomarker activities across this broad panel, along with comparative analysis of biological activities from known bioactive agents, were used to predict and compare the efficacy and function of each selected compound at four concentrations (740 nm and 2.2, 6.7 and 20 μM). […]

[3] = tested on: Peripheral blood mononuclear cells, B cells; experiment: BioMAP Diversity PLUS BT system (T cell dependent B cell activation); conditions: BT system
Description: as §2, §3
(§6) Each test agent generates a signature BioMAP profile that is created from the changes in protein biomarker readouts within individual system environments. Biomarker readouts (7-17 per system) are selected for therapeutic and biological relevance, are predictive for disease outcomes or specific drug effects and are validated using agents with known mechanism of action (MoA). Each readout is measured quantitatively by immune-based methods that detect protein (e.g., ELISA) or functional assays that measure proliferation and viability. BioMAP readouts are diverse and include cell surface receptors, cytokines, chemokines, matrix molecules and enzymes.
(§7) The Diversity PLUS panel allows test agent characterization in an unbiased way across a broad set of systems modeling various human disease states. These systems are designed to model complex human tissue and disease biology of the vasculature, skin, lung, and inflammatory tissues.
(§8) BioMAP systems are constructed with one or more primary cell types from healthy human donors, with stimuli (such as cytokines or growth factors) added to capture relevant signaling networks that naturally occur in human tissue or pathological conditions. Vascular biology is modeled in both a Th1 (3C system) and a Th2 (4H system) inflammatory environment, as well as in a Th1 inflammatory state specific to arterial smooth muscle cells (CASM3C system). Additional systems recapitulate aspects of the systemic immune response including monocyte-driven Th1 inflammation (LPS system) or T cell stimulation (SAg system), chronic Th1 inflammation driven by macrophage activation (lMphg system) and the T cell-dependent activation of B cells that occurs in germinal centers (BT system).

[4] = tested on: Bronchial epithelial cells; experiment: BioMAP Diversity PLUS BE3C system (Th1 type lung inflammation)
Description: as §2, §3, §4, §5

Dermal fibroblasts = experiment: BioMAP Diversity PLUS HDF3CGF system (wound healing and matrix/tissue remodeling)
Description: as §2, §3, §6, §7, §8

[5] = tested on: Keratinocytes, dermal fibroblasts; experiment: BioMAP Diversity PLUS KF3CT system (Th1 type cutaneous inflammation)
Description: as §2
BioMAP panels consist of human primary cell-based systems designed to model different aspects of the human body in an in vitro format. The 12 systems in the Diversity PLUS panel allow test agent characterization in an unbiased way across a broad set of systems modeling various human disease states. […]
as §1, with “enzymes. In total, the Diversity PLUS panel contains 148 biomarker readouts that capture biological changes that occur within the physiological context of the particular BioMAP system.” for “enzymes.”

Lung fibroblasts = experiment: BioMAP Diversity PLUS MyoF system (myofibroblast differentiation and tissue remodeling)
Description: as §2, §3, §4, §5

[6] = tested on: Macrophages, venular endothelial cells; experiment: BioMAP Diversity PLUS lMphg system (Th1 type chronic inflammation, macrophage activation); conditions: /Mphg system
Description: as §2, §3, §4, §5

[7] = tested on: Venular endothelial cells, peripheral blood mononuclear cells; experiment: BioMAP Diversity PLUS LPS system (Th1 type chronic inflammation, monocyte activation); conditions: for Significant log10 reduction compared to nontreated controls: Secreted prostaglandin E2 (PGE2): LPS system
Description: as §2, §3, §6, §7, §8

[8] = tested on: Coronary artery smooth muscle cells; experiment: BioMAP Diversity PLUS CASM3C system (Th1 type vascular inflammation); conditions: CASM3C system
Description: as §2, §3, §6, §7, §8

Structure (SMILES): CCCCCCCCCCCCCCC(=O)O[C@H](CC(=O)[O-])C[N+](C)(C)C [Pentadecanoylcarnitine (C15), pentadecanoylcarnitine]
- Significant log10 reduction compared to nontreated controls: Vascular endothelial growth factor s (VEGFR2) [1]: −0.11 log10
- Significant log10 reduction compared to nontreated controls: E-selectin ([2]; SAg system, 6.7 μM): −0.11 log10
- Significant log10 reduction compared to nontreated controls: T cell proliferation ([2]; SAg system, 6.7 μM): −0.17 log10
- Significant log10 reduction compared to nontreated controls: Secreted interleukin 2 (IL-2) ([3]; 2.2 μM): −0.11 log10
- Significant log10 reduction compared to nontreated controls: Secreted interleukin 6 (IL-6) ([3]; 6.7 μM): −0.13 log10
- Significant log10 reduction compared to nontreated controls: Tumor necrosis factor alpha (TNFα) ([3]; 6.7 μM): −0.10 log10
- Significant log10 reduction compared to nontreated controls: Interferon-inducible T cell alpha chemoattractant (I-TAC)/CXCL11 ([4]; 0.7 μM): −0.13 log10
- Significant log10 reduction compared to nontreated controls: Interleukin 1 alpha (IL-1α) ([4]; 0.7 μM): −0.06 log10
- Significant log10 reduction compared to nontreated controls: Interferon-inducible T cell alpha chemoattractant (I-TAC)/CXCL11 ([4]; 2.2 μM): −0.17 log10
- Significant log10 reduction compared to nontreated controls: Interleukin 1 alpha (IL-1α) ([4]; 2.2 μM): −0.06 log10
- Significant log10 reduction compared to nontreated controls: Matrix metalloproteinase 1 (MMP-1) ([4]; 2.2 μM): −0.05 log10
- Significant log10 reduction compared to nontreated controls: Matrix metalloproteinase 9 (MMP-9) ([4]; 2.2 μM): −0.08 log10
- Significant log10 reduction compared to nontreated controls: Plasminogen activation inhibitor 1 (PAI-1) ([4]; 2.2 μM): −0.08 log10
- Significant log10 reduction compared to nontreated controls: Tissue plasminogen activator (tPA) ([4]; 2.2 μM): −0.11 log10
- Significant log10 reduction compared to nontreated controls: Human leukocyte antigen-DR isotype (HLA-DR) ([4]; 6.7 μM): −0.63 log10
- Significant log10 reduction compared to nontreated controls: Interferon gamma-induced protein 10 (IP-10)/CXCL10 ([4]; 6.7 μM): −0.1 log10
- Significant log10 reduction compared to nontreated controls: Interferon-inducible T cell alpha chemoattractant (I-TAC)/CXCL11 ([4]; 6.7 μM): −0.54 log10
- Significant log10 reduction compared to nontreated controls: Interleukin 1 alpha (IL-1α) ([4]; 6.7 μM): −0.19 log10
- Significant log10 reduction compared to nontreated controls: Interleukin 8 (IL-8)/CXCL8 ([4]; 6.7 μM): −0.21 log10
- Significant log10 reduction compared to nontreated controls: Matrix metalloproteinase 1 (MMP-1) ([4]; 6.7 μM): −0.27 log10
- Significant log10 reduction compared to nontreated controls: Matrix metalloproteinase 9 (MMP-9) ([4]; 6.7 μM): −0.34 log10
- Significant log10 reduction compared to nontreated controls: Monokine induced by gamma interferon (MIG)/CXCL9 ([4]; 6.7 μM): −0.60 log10
- Significant log10 reduction compared to nontreated controls: Plasminogen activation inhibitor 1 (PAI-1) ([4]; 6.7 μM): −0.24 log10
- Significant log10 reduction compared to nontreated controls: Tissue plasminogen activator (tPA) ([4]; 6.7 μM): −0.43 log10
- Significant log10 reduction compared to nontreated controls: Matrix metalloproteinase 1 (MMP-1) (Dermal fibroblasts; HDF3CGF system, 6.7 μM): −0.12 log10
- Significant log10 reduction compared to nontreated controls: Interferon gamma-induced protein 10 (IP-10)/CXCL10 ([5]; 0.7 μM): −0.14 log10
- Significant log10 reduction compared to nontreated controls: Interferon gamma-induced protein 10 (IP-10)/CXCL10 ([5]; 2.2 μM): −0.09 log10
- Significant log10 reduction compared to nontreated controls: Interferon gamma-induced protein 10 (IP-10)/CXCL10 ([5]; 6.7 μM): −0.10 log10
- Significant log10 reduction compared to nontreated controls: Alpha smooth muscle actin (αSMA) (Lung fibroblasts; 0.7 μM): −0.16 log10
- Significant log10 reduction compared to nontreated controls: Alpha smooth muscle actin (αSMA) (Lung fibroblasts; 2.2 μM): −0.18 log10
- Significant log10 reduction compared to nontreated controls: Alpha smooth muscle actin (αSMA) (Lung fibroblasts; 6.7 μM): −0.26 log10
- Significant log10 reduction compared to nontreated controls: Monocyte chemoattractant protein 1 (MCP-1) ([6]; 2.2 μM): −0.17 log10
- Significant log10 reduction compared to nontreated controls: Monocyte chemoattractant protein 1 (MCP-1) ([6]; 6.7 μM): −0.25 log10
- Significant log10 reduction compared to nontreated controls: Secreted interleukin 10 (IL-10) ([6]; 6.7 μM): −0.13 log10

Structure (SMILES): CS(=O)(=O)CC[C@H](N)C(=O)O [Methionine sulfone]
- Significant log10 reduction compared to nontreated controls: Secreted prostaglandin E2 (PGE2) ([7]; 0.7 μM): −0.12 log10
- Significant log10 reduction compared to nontreated controls: Secreted prostaglandin E2 (PGE2) ([7]; 2.2 μM): −0.08 log10
- secretion of prostaglandin E2 (PGE2) ([7]; human cell system mimicking T-cell and monocyte driven chronic inflammation and cardiovascular diseases (FIG. 4)): lowered
- T cell proliferation ([2]; human cell system mimicking T-cell driven chronic inflammation and autoimmune diseases, concentrations ranging from 740 nm to 6.7 μM (FIG. 2)): decreased
- Significant log10 reduction compared to nontreated controls: Vascular cell adhesion molecule 1 (VCAM-1) ([8]; 0.7 μM): −0.10 log10
- Significant log10 reduction compared to nontreated controls: Vascular cell adhesion molecule 1 (VCAM-1) ([8]; 2.2 μM): −0.09 log10
- Significant log10 reduction compared to nontreated controls: Monocyte chemoattractant protein 1 (MCP-1) (Dermal fibroblasts; HDF3CGF system, 6.7 μM): −0.24 log10
- decorin (Dermal fibroblasts; human cell system mimicking wound healing, remodeling, fibrosis and chronic inflammation (FIG. 7)): inhibitory activity
- Significant log10 reduction compared to nontreated controls: Decorin (Lung fibroblasts; 6.7 μM): −0.07 log10
- Significant log10 reduction compared to nontreated controls: Decorin (Lung fibroblasts; 20.0 μM): −0.11 log10
